The values that follow come from PMC10963859 (Redox Biology, 2024).

SMILES strings stand for the structures.

By IC50 is commonly meant the midpoint of a concentration-inhibition curve. A lower IC50 goes with greater potency.

The assay addresses GPX4. The class given is biochemical. To be noted: covalent; without GCTR.

Compound `COC(=O)c1ccc([C@H]2c3[nH]c4ccccc4c3C[C@H](C(=O)OC)N2C(=O)CCl)cc1` [RSL3] displayed an IC50 of 12.4 µM.
